Assay results reported in US10011602B2, “Immunological reagents and uses therefor” (THE UNIVERSITY OF MELBOURNE, priority 2012, dated 2018).

Columns and labels:
MR1 = molecular target: T1, MR1 (Homo sapiens, UniProt Q95460); assay: Refolding of denatured MR1 and β2m with ligands; format: binding; settings: substance added to MR1/β2m refold
T1 construct: soluble human MR1 (residues 1-270 of the mature, leaderless protein); made in house
Description: Genes encoding soluble human MR1 (residues 1-270 of the mature, leaderless protein, lacking the transmembrane and cytoplasmic domains); or human β2m (mature, leaderless protein) were expressed for four hours in BL21 E. coli following induction with 1 mM isopropyl β-D-1-thiogalactopyranoside. E. coli were pelleted and resuspended in a buffer containing 50 mM Tris, 25% (w/v) sucrose, 1 mM EDTA, 10 mM DTT pH 8.0. Inclusion body protein was then extracted by lysis of bacteria in a buffer containing 50 mM Tris pH 8.0, 1% (w/v) Triton X-100, 1% (w/v) sodium deoxycholate, 100 mM NaCl, 10 mM DTT, 5 mM MgCl2, and 1 mg DnaseI per liter of starting culture; and subsequent steps involved homogenization with a polytron homogenizer, centrifugation, and washing inclusion body protein sequentially with firstly a buffer containing 50 mM Tris pH 8, […], 100 mM NaCl, 1 mM EDTA, 1 mM DTT, and secondly a buffer containing 50 mM Tris pH 8.0, 1 mM EDTA, 1 mM DTT. Inclusion body protein was then resuspended in a buffer containing 20 mM Tris pH 8.0, 8 M urea, 0.5 mM EDTA, 1 mM DTT, and following centrifugation the supernatant containing solubilized, denatured inclusion body protein was collected and stored at −80° C.
2 mg of 6-formyl pterin, 56 mg of denatured inclusion body MR1 protein, and 28 mg of β2m protein were added to a 400 ml refold buffer solution containing 0.1 M Tris pH 8.5, 2 mM EDTA, 0.4 M arginine, 0.5 mM oxidized glutathione, 5 mM reduced glutathione. Variably, 5M urea was either present or absent. Following an overnight incubation at 4° C., the refold buffer was dialysed against 3 changes of buffer containing 10 mM Tris, pH8.0 over a period of 24 hours. Refolded MR1-β2m-ligand complex was then purified by sequential DEAE (GE Healthcare) anion exchange, S75 16/60 (GE Healthcare) gel filtration, and MonoQ (GE Healthcare) anion exchange chromatography.

Jurkat.MAIT cells = assay: Activation of Jurkat.MAIT cells (CD69) with C1R antigen presenting cells expressing MR1; format: cell-based, human
Description: Jurkat cells transduced with a MAIT TCR comprising the TRAV1-2+TRAJ33 invariant α chain, and a TRBV6-1 β chain were tested for activation by addition of Salmonella supernatant to C1R antigen presenting cells expressing MR1 for 16 hours. Jurkat.MAIT cells were subsequently stained with PE-conjugated anti-CD3, and APC-conjugated anti-CD69 antibodies before analysis by flow cytometry. Activation of Jurkat.MAIT cells was measured by an increase in surface CD69 expression. Compounds to be tested for the ability to activate Jurkat.MAIT cells were tested alongside Salmonella supernatant.
A biological assay for the activation of MAIT T cell receptor (TCR)-expressing T cell lines (into which genes encoding the MAIT TCR alpha and beta chains had been introduced), by antigen presenting cells (expressing MR1 on the cell surface) infected with the bacterium Salmonella typhimurium has been established. This assay measures the increase in expression of the cell surface activation marker, CD69, upon activation of MAIT T cells.

human PBMC MAIT cells = assay: MR1 tetramer staining of human PBMCs (flow cytometry); format: cell-based; settings: PE-streptavidin tetramers; D5, CD161 co-staining
Description: Biotinylated MR1 (produced in either of the 2 methods mentioned above) is used to make tetramers by the addition of biotinylated MR1 to PE Streptavidin (#554061, BD Pharmingen) in a 4:1 molar ratio. PE Streptavidin is added sequentially in 1/10 aliquots to biotinylated MR1 at 10 minute intervals to ensure efficient tetramization.
Human MAIT cells are identified as being D5-positive (D5 mAb stains Vα7.2,-positive T cells; Vα7.2 is the invariant Vα-chain utilized by human MAIT cells) and CD161-positive. Human PBMCs were stained with CD3-PE-Cy7, CD8-PerCP, CD4-APC-Cy7, CD161-APC specific mAbs; as well as the anti-Vα7.2-FITC mAb D5 (generated in-house; human MAIT cells utilize the Vα7.2 alpha chain) and PE-labeled tetramers of mouse MR1-β2m-acetyl-6-Formyl Pterin (mouse MR1 had been refolded with either 6-formyl pterin or acetyl-6-formyl pterin).

MAIT cells = assay: Re-presentation assay: refolded soluble MR1 added to antigen presenting cells expressing MR1 and MAIT cells; format: cell-based; settings: MR1 refolded with the named substance

T1 sequence (Q95460 23-292): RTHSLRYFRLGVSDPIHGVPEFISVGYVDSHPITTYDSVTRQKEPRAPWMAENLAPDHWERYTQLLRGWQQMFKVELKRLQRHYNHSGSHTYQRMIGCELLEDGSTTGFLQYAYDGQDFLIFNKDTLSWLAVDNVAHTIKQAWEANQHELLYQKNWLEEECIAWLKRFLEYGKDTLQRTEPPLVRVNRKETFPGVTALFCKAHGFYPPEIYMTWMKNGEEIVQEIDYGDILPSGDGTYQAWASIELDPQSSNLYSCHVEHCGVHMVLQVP
T1 sequence (P61769 21-119 partner): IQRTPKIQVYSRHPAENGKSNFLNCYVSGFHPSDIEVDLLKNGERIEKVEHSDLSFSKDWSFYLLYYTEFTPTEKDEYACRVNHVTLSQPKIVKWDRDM

## Cc1nc2nc(N)[nH]c(=O)c2nc1C [6-7-dimethylpterin]
MR1
  Ability to refold MR1 into native MR1-β2m complex: inability

## Cc1cc2nc3c(=O)[nH]c(=O)nc-3n(C[C@H](O)[C@H](O)[C@H](O)CO)c2cc1C [riboflavin, reference compound]
MR1
  Ability to refold MR1 into native MR1-β2m complex: did not form MR1-β2m complexes
Jurkat.MAIT cells
  Activation of Jurkat.MAIT cells (increase in surface CD69): did not

## human Leucine151Alanine MR1 refolded with acetyl-6-FP: tetramers from human Leucine151Alanine MR1 (BirA peptide-tagged) refolded with acetyl-6-FP
Human PBMC MAIT cells
  Tetramer staining of human PBMC MAIT cells: stain a proportion

## Nc1nc2ncc(CNc3ccc(C(=O)N[C@@H](CCC(=O)O)C(=O)O)cc3)nc2c(=O)[nH]1 [Folic acid]
MR1
  Ability to refold MR1 into native MR1-β2m complex: yielded significant amounts of native MR1
MAIT cells
  Activation of MAIT cells by MR1 refolded with the substance (re-presentation assay): failed to activate
MAIT cells; listed as folic acid
  Activation of MAIT cells by MR1 refolded with the substance (re-presentation assay): non-stimulatory

## human wild-type MR1 refolded with 6-FP: control tetramers from human wild-type MR1 refolded with 6-FP
Human PBMC MAIT cells
  Tetramer staining of human PBMC MAIT cells: fail to stain

## Nc1nc2nccnc2c(=O)[nH]1 [pterin]
MR1
  Ability to refold MR1 into native MR1-β2m complex: inability

B1: mouse MR1 refolded with 6-FP: tetramers from mouse MR1 (BirA peptide-tagged) refolded with 6-FP (protein, UniProt Q8HWB0 19-341, looked up)
Major histocompatibility …: RTHSLRYFRLAVSDPGPVVPEFISVGYVDSHPITTYDSVTRQKEPKAPWMAENLAPDHWERYTQLLRGWQQTFKAELRHLQRHYNHSGLHTYQRMIGCELLEDGSTTGFLQYAYDGQDFIIFNKDTLSWLAMDYVAHITKQAWEANLHELQYQKNWLEEECIAWLKRFLEYGRDTLERTEHPVVRTTRKETFPGITTFFCRAHGFYPPEISMTWMKNGEEIAQEVDYGGVLPSGDGTYQTWLSVNLDPQSNDVYSCHVEHCGRQMVLEAPRESGDILRVSTISGTTILIIALAGVGVLIWRRSQELKEVMYQPTQVNEGSSPS
modifications: BirA tag, tetramer, 6-FP ligand
Human PBMC MAIT cells
  Tetramer staining of human PBMC MAIT cells: can stain a proportion

B2: rRL-6-CH2OH-loaded mouse Lys43Ala-MR1: tetramers of mouse Lys43Ala-MR1 loaded with rRL-6-CH2OH (protein, UniProt Q8HWB0 19-341, looked up, variant K43A)
Major histocompatibility …: RTHSLRYFRLAVSDPGPVVPEFISVGYVDSHPITTYDSVTRQAEPKAPWMAENLAPDHWERYTQLLRGWQQTFKAELRHLQRHYNHSGLHTYQRMIGCELLEDGSTTGFLQYAYDGQDFIIFNKDTLSWLAMDYVAHITKQAWEANLHELQYQKNWLEEECIAWLKRFLEYGRDTLERTEHPVVRTTRKETFPGITTFFCRAHGFYPPEISMTWMKNGEEIAQEVDYGGVLPSGDGTYQTWLSVNLDPQSNDVYSCHVEHCGRQMVLEAPRESGDILRVSTISGTTILIIALAGVGVLIWRRSQELKEVMYQPTQVNEGSSPS
modifications: tetramer loaded with rRL-6-CH2OH
notes: tetramers of mouse Lys43Ala-MR1 loaded with rRL-6-CH2OH
Human PBMC MAIT cells
  Tetramer staining of human PBMC MAIT cells: identify a CD161-positive, D5-positive population
